US8586611B2 (priority 2005, dated 2013)
Where two headings read alike, the source gives them in different places.

Key:
Type in all cases: in vivo
[1] = system: Erysiphe graminis f. sp. tritici; assay: Test E: wheat powdery mildew, spray the day before inoculation (disease rating, 100 = 100% disease control)
Outline: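 Wheat seedlings sprayed to run-off with compound suspended in acetone/water 50/50 with 250 ppm Trem 014 (200 ppm equivalent to 500 g/ha); inoculated next day with Erysiphe graminis f. sp. tritici spore dust. Kept 7 days at 20° C, then rated 0–100% disease control versus controls.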

[2] = system: Phytophthora infestans; assay: whole plant or invertebrate; conditions: for Test C disease rating (100 = 100% disease control, 0 = no disease control): tomato late blight
[3] = system: Pseudoperonospora cubensis; assay: Test F: cucumber downy mildew, DMSO/acetone/water test suspension, spray the day before inoculation (disease rating, 100 = 100% disease control)
Text: The test compounds were first dissolved in dimethyl sulfoxide (DMSO) in an amount equal to 4% of the final volume and then suspended at the desired concentration (in ppm) in acetone and purified water (30/70 mix by volume). The resulting test suspensions were then used in test F. Spraying a 250 ppm test suspension on the test plants was the equivalent of a rate of 250 g/ha.
The test suspension was sprayed on cucumber seedlings. The following day the seedlings were inoculated with a spore suspension of Pseudoperonospora cubensis (the causal agent of cucumber downy mildew) and incubated in a saturated atmosphere at 20° C. for 24 h, and then moved to a growth chamber at 20° C. for 6 days, after which disease ratings were made.
Results for Tests A-F are given in Table A. In the table, a rating of 100 indicates 100% disease control and a rating of 0 indicates no disease control (relative to the controls). A dash (-) indicates no test results.

[4] = system: Plasmopara viticola; assay: Test B: grape downy mildew, spray 24 h after inoculation (disease rating, 100 = 100% disease control)
Outline: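 Grape seedlings were inoculated with Plasmopara viticola and held 24 h saturated at 20 °C, then sprayed to run-off with compound suspension (acetone/water with 250 ppm Trem 014; 200 ppm ≈ 500 g/ha). After 5 days at 20 °C and 24 h saturation, disease was rated from 0 to 100% control versus untreated.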

[5] = system: Phytophthora infestans; assay: whole plant or invertebrate; conditions: for Test D disease rating (100 = 100% disease control, 0 = no disease control): tomato late blight
[6] = spray the day before inoculation, compounds without asterisk (not 40 or 10 ppm)
[7] = DMSO/acetone/water suspension, spray the day before inoculation, compounds without asterisk
[8] = spray 24 h after inoculation, compounds without asterisk (not 40 or 10 ppm)
[9] = spray 17 h after inoculation, compounds without asterisk (not 40 or 10 ppm)
[10] = sprayed the day before inoculation, 7 days at 20° C., unmarked compounds (no asterisk, not 40 or 10 ppm)
[11] = sprayed 24 h after inoculation, unmarked compounds (no asterisk, not 40 or 10 ppm)
[12] = sprayed 17 h after inoculation, unmarked compounds (no asterisk, not 40 or 10 ppm)

Row | SMILES | Test E disease rating (100 = 100% disease control, 0 = no disease control) [1, 6] [%] | Test C disease rating (100 = 100% disease control, 0 = no disease control) [2, 6] [%] | Test F disease rating (100 = 100% disease control, 0 = no disease control) [3, 7] [%] | Test B disease rating (100 = 100% disease control, 0 = no disease control) [4, 8] [%] | Test D disease rating (100 = 100% disease control, 0 = no disease control) [5, 9] [%] | other results
1 | Cc1cc(C(F)(F)F)nn1CC(=O)N1CCC(c2nc(C(=O)N(C)C3CCCc4ccccc43)cs2)CC1 (centres unmarked) [Compound 188, N-methyl-2-[1-[[5-methyl-3-(trifluoromethyl)-1H-pyrazol-1-yl]acetyl]-4-piperidinyl]-N-(1,2,3,4-tetrahydro-1-naphthalenyl)-4-thiazolecarboxamide] |  |  |  |  |  | pest or weed control at 10 ppm ([1]; Blumeria graminis, topical, 168 h, spray the day before inoculation, tested at 10 ppm, read-out: Test E disease rating (100 = 100% disease control, 0 = no disease control)): 84%; pest or weed control at 10 ppm ([2]; Phytophthora infestans, in Solanum lycopersicum, 144 h, read-out: Test C disease rating (100 = 100% disease control, 0 = no disease control)): 100%; pest or weed control at 10 ppm ([3]; Pseudoperonospora cubensis, topical, 168 h, DMSO/acetone/water suspension, spray the day before inoculation, compound marked as tested at 10 ppm, read-out: Test F disease rating (100 = 100% disease control, 0 = no disease control)): 99%; pest or weed control at 10 ppm ([4]; Plasmopara viticola, 144 h, spray 24 h after inoculation, tested at 10 ppm, read-out: Test B disease rating (100 = 100% disease control, 0 = no disease control)): 99%; pest or weed control at 10 ppm ([5]; Phytophthora infestans, in Solanum lycopersicum, topical, 96 h, read-out: Test D disease rating (100 = 100% disease control, 0 = no disease control)): 99%
2 | Cc1ccc(C)c(CC(=O)N2CCN(c3nc(C(=O)N(C)[C@H](C)c4ccccc4)co3)CC2)c1 [compound 50] | 0 | 100 | 100 | 55 | 99 | 
3 | C[C@H](c1ccccc1)N(C)C(=O)c1coc(N2CCN(C(=O)Cc3cc(C(F)(F)F)ccc3Cl)CC2)n1 [compound 51] | 0 | 100 | 100 | 20 | 96 | 
4 | Cc1cccc(CC(=O)N2CCN(c3nc(C(=O)N(C)[C@H](C)c4ccccc4)co3)CC2)c1 [compound 52] | 0 | 100 | 96 | 20 | 74 | 
5 | C[C@H](c1ccccc1)N(C)C(=O)c1coc(N2CCN(C(=O)Cc3cccc(Br)c3)CC2)n1 [compound 54] | 0 | 100 | 50 | 11 | 69 | 
6 | C[C@H](c1ccccc1)N(C)C(=O)c1coc(N2CCN(C(=O)Cc3cccc(C(F)(F)F)c3)CC2)n1 [compound 55] | 0 | 100 | 47 | 7 | 92 | 
7 | Cc1ccc(C)c(CC(=O)N2CCC(c3nc(C(=O)N(C)[C@H](C)c4ccccc4F)cs3)CC2)c1 [compound 57] | 50 | 100 | 99 | 100 | 94 | 
8 | COc1ccc([C@@H](C)N(C)C(=O)c2csc(C3CCN(C(=O)Cc4cc(C)ccc4C)CC3)n2)cc1 [compound 59] | 21 | 98 | 93 | 84 | 63 | 
9 | Cc1ccc(C)c(CC(=O)N2CCC(c3nc(C(=O)N(C)[C@H](C)c4ccc(Cl)cc4)cs3)CC2)c1 [compound 60] | 67 | 93 | 47 | 95 | 42 | 
10 | Cc1ccc([C@@H](C)N(C)C(=O)c2csc(C3CCN(C(=O)Cc4cc(C)ccc4C)CC3)n2)cc1 [compound 62] | 29 | 92 | 43 | 92 | 24 | 
11 | Cc1ccc(C)c(CC(=O)N2CCC(c3nc(C(=O)N(C)[C@H](C)c4ccc(Br)cc4)cs3)CC2)c1 [compound 63] | 0 | 100 | 99 | 100 | 93 | 
12 | Cc1ccc(C)c(CC(=O)N2CCC(c3nc(C(=O)N(C)[C@H](C)c4ccc(F)cc4)cs3)CC2)c1 [compound 64] | 92 | 100 | 93 | 100 | 95 | 
13 | Cc1cc(C)n(CC(=O)N2CCC(c3nc(C(=O)N(C)[C@H](C)c4ccccc4)cs3)CC2)n1 [compound 65] | 0 | 100 | 100 | 92 | 100 | 
14 | Cc1ccc(C)c(CC(=O)N2CCC(c3nc(C(=O)N(C)[C@H](C)c4cccc(C(F)(F)F)c4)cs3)CC2)c1 [compound 67] | 0 | 68 | 99 | 10 | 0 | 
15 | Cc1ccc(C)c(CC(=O)N2CCC(c3nc(C(=O)N(C)[C@@H](C)c4ccccc4)cs3)CC2)c1 [compound 68] | 0 | 100 | 95 | 47 | 16 | 
16 | COc1ccc(CCNC(=O)c2csc(C3CCN(C(=O)Cc4cc(C)ccc4C)CC3)n2)cc1OC [compound 288] |  |  |  |  |  | Test E disease rating (100 = 100% disease control, 0 = no disease control) [1, 10]: 0; Test F disease rating (100 = 100% disease control, 0 = no disease control) ([3]; DMSO/acetone/water test suspension, sprayed the day before inoculation, unmarked compounds (no asterisk)): 95; Test B disease rating (100 = 100% disease control, 0 = no disease control) [4, 11]: 73; Test D disease rating (100 = 100% disease control, 0 = no disease control) [5, 12]: 76
17 | Cc1cc(C(F)(F)F)nn1CC(=O)N1C2CCC1CC(c1nc(C(=O)N(C)[C@@H]3CCCc4ccccc43)cs1)C2 (some centres unmarked) [compound 316] |  |  |  |  |  | Test E disease rating (100 = 100% disease control, 0 = no disease control) [1, 10]: 0; Test C disease rating (100 = 100% disease control, 0 = no disease control) ([2]; sprayed the day before inoculation, unmarked compounds (no asterisk, not 40 or 10 ppm)): 100; Test B disease rating (100 = 100% disease control, 0 = no disease control) [4, 11]: 97; Test D disease rating (100 = 100% disease control, 0 = no disease control) [5, 12]: 97
